The values that follow are results of earlier work, collected in US20030091531A1, “Method and composition for insect and animal control” (priority 2001, published 2003).

The conditions of data set [1]: unstabilised active; degrades rapidly under ultraviolet light, water, oxygen and soil microbes.
The conditions of data set [2]: classified by the EPA.

As to `CCCCCCCCCC(C)=O` [methyl nonyl ketone], the shelf life entry in data set [1] is “twelve”. Regarding `CNC(=O)CSP(=S)(OC)OC` [Dimethoate, dimethoate], the EPA carcinogen classification entry in data set [2] is “group 3 carcinogen”.
